For series [1], the target named is T1, HCV NS3/4A protease complex, H77 strain (Hepatitis C virus genotype 1a, UniProt P27958, C1454S/C1711G).
T1 construct: DNA encoding the recombinant HCV NS3/4A protease complex (amino acids 1027 to 1711) for these strains; inferred from pET21b vector and Ni-NTA purification; made in house; host or cells: Escherichia coli BL21 (DE3), pET21b
The series can be described thus: FRET peptide assay to monitor HCV NS3/4A proteolytic activity, H77 strain. It is filed as biochemical, HCV genotype 1a. The settings on record: H77 strain (1a genotype). The text has this: (§1) HCV NS3 protease complexes, derived from the BMS strain, H77 strain or J4L6S strain, were generated, as described below. These purified recombinant proteins were generated for use in a homogeneous assay (see below) to provide an indication of how effective compounds of the present disclosure would be in inhibiting HCV NS3 proteolytic activity.
(§2) Serum from an HCV-infected patient was obtained from Dr. T. Wright, San Francisco Hospital. An engineered full-length cDNA (compliment deoxyribonucleic acid) template of the HCV genome (BMS strain) was constructed from DNA fragments obtained by reverse transcription-PCR(RT-PCR) of serum RNA (ribonucleic acid) and using primers selected on the basis of homology between other genotype 1a strains. From the determination of the entire genome sequence, a genotype 1a was assigned to the HCV isolate according to the classification of Simmonds et al. (See P Simmonds, K A Rose, S Graham, S W Chan, F McOmish, B C Dow, E A Follett, P L Yap and H Marsden, J. Clin. Microbiol., 31(6), 1493-1503 (1993)). […]

The target of series [2] is HCV NS3/4A protease complex, BMS strain (Hepatitis C virus genotype 1a, UniProt P27958). The series can be described thus: FRET peptide assay to monitor HCV NS3/4A proteolytic activity, BMS strain. It is filed as biochemical, HCV genotype 1a. The settings on record: read-out: IC50 against the NS3/4A BMS strain in the enzyme assay.
Chain of HCV NS3/4A protease complex, BMS strain (P27958 1027-1711, one chain of several): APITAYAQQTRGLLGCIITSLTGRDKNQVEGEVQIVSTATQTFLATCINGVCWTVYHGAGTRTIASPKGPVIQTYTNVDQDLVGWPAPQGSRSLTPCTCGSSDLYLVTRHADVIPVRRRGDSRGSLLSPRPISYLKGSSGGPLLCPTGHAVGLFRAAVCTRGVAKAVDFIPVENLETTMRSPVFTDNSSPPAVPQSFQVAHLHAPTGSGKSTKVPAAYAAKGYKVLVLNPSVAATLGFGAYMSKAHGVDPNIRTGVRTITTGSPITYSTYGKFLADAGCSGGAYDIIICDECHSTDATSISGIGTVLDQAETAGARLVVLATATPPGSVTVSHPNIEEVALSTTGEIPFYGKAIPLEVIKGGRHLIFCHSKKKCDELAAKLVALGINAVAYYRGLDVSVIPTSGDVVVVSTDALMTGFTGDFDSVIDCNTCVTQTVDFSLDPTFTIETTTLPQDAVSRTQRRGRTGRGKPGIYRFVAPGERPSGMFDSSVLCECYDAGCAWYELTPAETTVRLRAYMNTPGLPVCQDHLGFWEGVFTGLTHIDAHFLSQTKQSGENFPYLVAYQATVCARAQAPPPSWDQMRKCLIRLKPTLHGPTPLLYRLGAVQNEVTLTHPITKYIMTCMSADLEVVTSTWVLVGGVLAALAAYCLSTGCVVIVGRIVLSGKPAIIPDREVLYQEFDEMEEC
From the text: as §1
Serum from an HCV-infected patient was obtained from Dr. T. Wright, San Francisco Hospital. […]
In order to monitor HCV NS3/4A protease activity, an NS3/4A peptide substrate was used. […] The peptide also contains a fluorescence donor, EDANS, near one end of the peptide and an acceptor, DABCYL, near the other end. The fluorescence of the peptide is quenched by […] resonance energy transfer (RET) between the donor and the acceptor, but as the NS3 protease cleaves the peptide the products are released from RET quenching and the fluorescence of the donor becomes apparent.
The peptide substrate was incubated with one of the three recombinant NS3/4A protease complexes, in the absence or presence of a compound of the present disclosure. The inhibitory effects of a compound was determined by monitoring the formation of fluorescent reaction product in real time using a Cytofluor Series 4000. […]

The target in series [3] is T2, HCV NS3/4A protease complex, J4L6S strain (Hepatitis C virus genotype 1b, UniProt O92972, C1454S/C1711G).
T2 construct: DNA encoding the recombinant HCV NS3/4A protease complex (amino acids 1027 to 1711) for these strains; inferred from pET21b vector and Ni-NTA purification; made in house; host or cells: Escherichia coli BL21 (DE3), pET21b
T2 sequence (O92972 1027-1711 C1454S/C1711G, one chain of several): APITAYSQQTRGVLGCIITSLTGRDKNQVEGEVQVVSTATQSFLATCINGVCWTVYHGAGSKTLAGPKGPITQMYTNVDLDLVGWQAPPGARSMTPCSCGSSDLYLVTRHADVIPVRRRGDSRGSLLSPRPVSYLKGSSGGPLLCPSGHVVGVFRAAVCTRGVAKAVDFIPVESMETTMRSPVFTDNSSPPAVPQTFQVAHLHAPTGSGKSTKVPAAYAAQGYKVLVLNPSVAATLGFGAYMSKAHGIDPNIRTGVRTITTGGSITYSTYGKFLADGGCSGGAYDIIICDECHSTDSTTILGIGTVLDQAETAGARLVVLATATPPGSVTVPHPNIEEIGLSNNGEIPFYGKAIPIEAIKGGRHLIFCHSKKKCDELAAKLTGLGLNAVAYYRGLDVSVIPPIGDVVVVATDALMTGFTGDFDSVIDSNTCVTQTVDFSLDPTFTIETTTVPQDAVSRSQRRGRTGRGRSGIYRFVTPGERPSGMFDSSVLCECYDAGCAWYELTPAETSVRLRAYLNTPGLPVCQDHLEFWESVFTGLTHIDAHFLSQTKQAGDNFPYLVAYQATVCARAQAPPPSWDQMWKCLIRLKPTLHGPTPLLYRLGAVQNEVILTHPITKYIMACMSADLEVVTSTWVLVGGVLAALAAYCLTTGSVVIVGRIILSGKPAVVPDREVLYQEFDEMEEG
The experiment in a line: FRET peptide assay to monitor HCV NS3/4A proteolytic activity, J4L6S strain. It is filed as biochemical, HCV genotype 1b. The settings on record: J4L6S strain (1b genotype).
From the text: as §1, §2

The subject of series [4] is human pancreatic chymotrypsin. The series can be described thus: Specificity assay, chymotrypsin (pNA substrate). In kind it is biochemical. The note with it: read-out: Chymotrypsin activity in the specificity assays (IC50). How it is done:
The specificities of compounds of the present disclosure were determined against a variety of serine proteases: human neutrophil elastase (HNE), porcine pancreatic elastase (PPE) and human pancreatic chymotrypsin and one cysteine protease: human liver cathepsin B. In all cases, a 96-well plate format protocol using colorimetric p-nitroaniline (pNA) substrate or fluorometric Amino-Methyl-Coumarin (AMC) substrate, specific for each enzyme was used as described previously (PCT Patent Application No. WO 00/09543) with some modifications. All enzymes were purchased from Sigma or EMDbiosciences while the substrates were from Bachem.
Each pNA assay included a 2 h enzyme-inhibitor pre-incubation at room temperature followed by addition of substrate and hydrolysis to ˜15% conversion as measured on a Spectramax Pro microplate reader. The cathepsin B assay was initiated by adding substrate to a 10 min enzyme-inhibitor pre-incubation at room temperature, and the assay plate measured immediately using the Cytofluor Series 4000. Compound concentrations varied from 100 to 0.4 μM depending on their potency.
50 mM Tris(hydroxymethyl)aminomethane hydrochloride (Tris-HCl) pH 8, 0.5 M Sodium Sulfate (Na2SO4), 50 mM NaCl, 0.1 mM EDTA, 3% DMSO, 0.01% Tween-20 with: […]
The percentage of inhibition was calculated using the formula: [1−((UVinh−UVblank)/(UVctl−UVblank))]×100 […]

A value given as a limit tells only on which side of the number the result lay.

Usually melting point stands for the temperature, or range, at which the solid turns liquid.

T1 sequence (P27958 1027-1711 C1454S/C1711G, one chain of several): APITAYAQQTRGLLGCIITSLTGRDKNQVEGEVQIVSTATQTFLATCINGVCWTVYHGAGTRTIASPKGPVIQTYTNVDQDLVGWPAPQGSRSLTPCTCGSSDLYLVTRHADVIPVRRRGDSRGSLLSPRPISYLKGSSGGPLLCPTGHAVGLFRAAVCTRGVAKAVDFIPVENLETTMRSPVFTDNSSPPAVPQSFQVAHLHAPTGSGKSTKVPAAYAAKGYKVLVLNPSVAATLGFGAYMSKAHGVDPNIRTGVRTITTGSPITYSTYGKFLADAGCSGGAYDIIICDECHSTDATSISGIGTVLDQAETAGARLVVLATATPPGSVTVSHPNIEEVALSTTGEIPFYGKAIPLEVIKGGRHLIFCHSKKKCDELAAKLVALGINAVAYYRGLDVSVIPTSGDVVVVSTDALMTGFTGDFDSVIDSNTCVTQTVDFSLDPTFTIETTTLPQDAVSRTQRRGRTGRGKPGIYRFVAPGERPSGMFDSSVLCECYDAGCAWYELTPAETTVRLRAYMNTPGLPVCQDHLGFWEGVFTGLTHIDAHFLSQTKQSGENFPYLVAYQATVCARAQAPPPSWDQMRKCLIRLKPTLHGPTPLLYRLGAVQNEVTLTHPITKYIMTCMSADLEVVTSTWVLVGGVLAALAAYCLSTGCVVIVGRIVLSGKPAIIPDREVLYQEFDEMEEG

As for `CC(C)(C)OC(=O)N[C@H]1CN(C2CC2)CCC/C=C\C2C[C@@]2(C(=O)NS(=O)(=O)C2CC2)NC(=O)[C@@H]2C[C@@H](Oc3ccccn3)CN2C1=O` (some centres unmarked) [Compound 1], the IC50 in series [1] was 18 nM; in series [2], 98 nM; in series [3], 12 nM; in series [4] it was greater than 100000 nM.
In turn, `CC(C)(C)OC(=O)N[C@H]1CCCOC/C=C\[C@@H]2C[C@@]2(C(=O)NS(=O)(=O)C2CC2)NC(=O)[C@@H]2C[C@@H](OCc3ccccc3)CN2C1=O` [Compound 5, (1S,4R,6S,14S,18R, 7-cis)-18-benzyloxy-14-tert-butoxycarbonylamino-4-cyclopropanesulfonylaminocarbonyl-2,15-dioxo-3,16-diaza-10-oxatricyclo[14.3.0.04,6]nonadec-7-ene] had a melting point of 147 to 149 °C.

For the origin of these results see patent publication US8343477B2, “Inhibitors of hepatitis C virus” (Bristol-Myers Squibb Company, priority 2006, dated 2013).
